According to patent US20220267310A1, “QUINAZOLINE AND CINNOLINE DERIVATIVES AS DNA-PK INHIBITOR” (MEDSHINE DISCOVERY INC., priority 2019, published 2022):

Key:
[1] = biological target: T1, PI3K (p110σ/p85α) (Homo sapiens, UniProt O00329); assay: PI3K (p110σ/p85α) kinase inhibitory activity (HTRF); type: biochemical
T1 construct: Eurofins Pharma Discovery Service (contract assay)

[2] = biological target: T2, PI3K (p120γ) (Homo sapiens, UniProt P48736); assay: PI3K (p120γ) kinase inhibitory activity (HTRF); type: biochemical
T2 construct: Eurofins Pharma Discovery Service (contract assay)
Method: This experiment was tested at Eurofins Pharma Discovery Service, Reaction Biology Corp. (RBC)
[…] DNA-PK: Mg/ATP; GST-cMyc-p53; EDTA; Ser15 antibody; ATP: 10 μM; biotinylated phosphatidylinositol-3,4,5-triphosphate; GST label GRP1 PH domain; streptavidin and phycocyanin; europium-labelled monoclonal antibody against GST.
PI3K (p120γ) was incubated in a determination buffer containing phosphatidylinositol 4,5-diphosphate and Mg/ATP (density as required). The reaction was initiated by adding a mixture of Mg/ATP. After incubating at room temperature for 30 min, a termination solution containing EDTA and biotinylated phosphatidylinositol-3,4,5-triphosphate was added to terminate the reaction. Finally, a detection buffer (containing labeled anti-GST monoclonal antibody, PH domain of GRP1 with GST label and streptavidin and phycyanin and […]) was added. Then, the board was read in time-resolved fluorescence mode, and an HTRF signal was measured according to the formula HTRF=10000×(Em665 nm/Em620 nm).

[3] = tested on: human head and neck cancer FaDu cell subcutaneous xenograft tumor; assay: FaDu subcutaneous xenograft, mono and combination with radiotherapy; type: in vivo; settings: for Tumor volume (mm^3), 3 days after administration: day 3; for Tumor volume (mm^3), 7 days after administration: day 7; for Tumor volume (mm^3), 10 days after administration: day 10; for Tumor volume (mm^3), 14 days after administration: day 14; for Tumor volume (mm^3), 17 days after administration: day 17; for Tumor volume (mm^3), 23 days after administration: day 23; for RTV (21th day) / T/C (%) (21th day) / TGI (%) (21th day) / Tumor volume (mm^3) (0th day) / Tumor volume (mm^3) (21th day): 50 mg/kg, PO
Method: Experiment purpose: The antitumor activity of the tested compound was evaluated in a nude mouse model of human head and neck cancer FaDu cell subcutaneous xenograft tumor
Experimental animals: Female BALB/c nude mice, 6-8 weeks old, weighing 17-23 grams; supplier: B&K Universal Group Limited
Human head and neck cancer FaDu cell (ATCC, Manassas. Virginiaite, item number: HTB-43) was cultured in vitro in a culture condition of EMEM medium with 10% fetal bovine serum, 100 U/mL penicillin and 100 μg/mL streptomycin, incubated at 37° C. and 5% CO2. Conventional digestive treatment passage was carried out using pancreatic enzyme—EDTA twice a week.
Each mouse was subcutaneously inoculated with 0.1 mL ([…]) FaDu cells at the right dorsal position, and when the average tumor volume reaches about 106 mm^3, randomization was used for initiating drug administration.
The tested compound was prepared as a 5 mg/mL clarified solution with 10% DMSO+50% polyethylene glycol 400+40% water as the solvent. Preparation was conducted every three days.
The experimental indicators refers to study whether tumor growth was inhibited, delayed, or cured. Tumor diameter was measured twice a week with a vernier caliper. The calculation formula of the tumor volume was V=0.5a×b^2, and a and b represent the long diameter and short diameter of the tumor, respectively.
The antitumor efficacy of the compound was evaluated by TGI (%) or relative tumor proliferation rate T/C (%). TGI (%) reflects the tumor growth inhibition rate. The calculation of TGI (%): TGI (%)=[1−(average tumor volume at the end of administration of a certain treatment group−average tumor volume at the beginning of administration of the treatment group)/(average tumor volume at the end of treatment in solvent control group−average tumor volume at the beginning of treatment in solvent control group)]×control group.
Relative tumor proliferation rate T/C (%): the calculation formula was as follows: T/C %=[…] TRTV/CRTV group (TRTV: treatment group RTV: CRTV: negative control group RTV). According to results of tumor measurement. Relative Tumor Volume (RTV) was calculated by the formula RTV=Vt/V0, where V0 was the average tumor volume measured in group administration (i.e., d0), and Vt was the average tumor volume measured in a certain single measurement. TRTV and CRTV collect data on the same day.
Statistic analysis includes an average value and a standard error (SEM) of tumor volume at each time point for each group. […] If there was no significant difference in F value, Dunnet (2-sided) method was applied to analysis. All data were analyzed using SPSS 17.0. P<0.05 was considered as having a significant difference.

[4] = 50 mg/kg + 2 Gy, average ± SEM, n = 8
[5] = 50 mg/kg alone, average ± SEM, n = 8
[6] = QD, alone, average ± SEM, n = 8

T1 sequence (O00329 whole entry): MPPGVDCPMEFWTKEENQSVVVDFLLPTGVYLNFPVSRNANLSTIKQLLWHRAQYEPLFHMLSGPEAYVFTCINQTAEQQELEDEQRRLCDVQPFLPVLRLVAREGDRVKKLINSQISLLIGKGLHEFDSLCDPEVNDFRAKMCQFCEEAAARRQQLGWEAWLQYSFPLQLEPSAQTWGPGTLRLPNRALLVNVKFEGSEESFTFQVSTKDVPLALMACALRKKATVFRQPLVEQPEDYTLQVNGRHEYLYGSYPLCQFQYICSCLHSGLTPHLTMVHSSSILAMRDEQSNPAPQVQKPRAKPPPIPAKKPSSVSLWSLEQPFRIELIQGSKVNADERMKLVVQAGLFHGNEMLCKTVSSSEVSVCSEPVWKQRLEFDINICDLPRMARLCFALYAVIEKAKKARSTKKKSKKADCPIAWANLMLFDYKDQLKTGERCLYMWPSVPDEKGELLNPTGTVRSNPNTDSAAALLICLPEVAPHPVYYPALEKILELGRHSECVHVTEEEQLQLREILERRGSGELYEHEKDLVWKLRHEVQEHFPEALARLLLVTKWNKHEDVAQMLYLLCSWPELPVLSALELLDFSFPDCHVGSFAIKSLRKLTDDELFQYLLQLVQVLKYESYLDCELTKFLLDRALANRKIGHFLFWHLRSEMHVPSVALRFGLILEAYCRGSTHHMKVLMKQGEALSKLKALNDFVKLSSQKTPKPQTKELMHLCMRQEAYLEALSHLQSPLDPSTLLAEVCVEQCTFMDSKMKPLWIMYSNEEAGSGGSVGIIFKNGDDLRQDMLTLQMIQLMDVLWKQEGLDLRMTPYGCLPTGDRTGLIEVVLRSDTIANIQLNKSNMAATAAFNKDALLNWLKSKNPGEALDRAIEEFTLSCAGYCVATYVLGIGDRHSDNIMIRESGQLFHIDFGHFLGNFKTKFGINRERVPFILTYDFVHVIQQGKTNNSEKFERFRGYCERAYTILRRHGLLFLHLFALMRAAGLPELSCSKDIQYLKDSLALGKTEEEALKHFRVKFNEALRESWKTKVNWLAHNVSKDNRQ
T1 sequence (P27986 whole entry partner): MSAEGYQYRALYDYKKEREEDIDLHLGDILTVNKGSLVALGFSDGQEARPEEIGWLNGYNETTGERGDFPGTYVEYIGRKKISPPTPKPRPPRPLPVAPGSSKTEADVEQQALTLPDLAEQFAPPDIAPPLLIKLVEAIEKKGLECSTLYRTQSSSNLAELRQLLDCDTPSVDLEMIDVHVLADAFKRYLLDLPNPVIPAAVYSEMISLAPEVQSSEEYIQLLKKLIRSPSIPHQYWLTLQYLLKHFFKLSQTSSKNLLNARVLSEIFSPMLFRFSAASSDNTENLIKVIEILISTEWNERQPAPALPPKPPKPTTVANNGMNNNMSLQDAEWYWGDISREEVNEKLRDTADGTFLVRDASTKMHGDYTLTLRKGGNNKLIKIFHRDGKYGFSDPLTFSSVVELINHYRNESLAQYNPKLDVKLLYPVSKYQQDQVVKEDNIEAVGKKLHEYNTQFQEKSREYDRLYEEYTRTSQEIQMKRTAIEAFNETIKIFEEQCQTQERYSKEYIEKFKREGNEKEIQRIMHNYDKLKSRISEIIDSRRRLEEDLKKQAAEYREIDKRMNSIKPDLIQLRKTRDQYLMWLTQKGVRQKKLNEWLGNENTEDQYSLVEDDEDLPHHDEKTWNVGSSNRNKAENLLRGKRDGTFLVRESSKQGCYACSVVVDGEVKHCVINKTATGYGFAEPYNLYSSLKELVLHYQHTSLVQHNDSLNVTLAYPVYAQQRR
T2 sequence (P48736 whole entry): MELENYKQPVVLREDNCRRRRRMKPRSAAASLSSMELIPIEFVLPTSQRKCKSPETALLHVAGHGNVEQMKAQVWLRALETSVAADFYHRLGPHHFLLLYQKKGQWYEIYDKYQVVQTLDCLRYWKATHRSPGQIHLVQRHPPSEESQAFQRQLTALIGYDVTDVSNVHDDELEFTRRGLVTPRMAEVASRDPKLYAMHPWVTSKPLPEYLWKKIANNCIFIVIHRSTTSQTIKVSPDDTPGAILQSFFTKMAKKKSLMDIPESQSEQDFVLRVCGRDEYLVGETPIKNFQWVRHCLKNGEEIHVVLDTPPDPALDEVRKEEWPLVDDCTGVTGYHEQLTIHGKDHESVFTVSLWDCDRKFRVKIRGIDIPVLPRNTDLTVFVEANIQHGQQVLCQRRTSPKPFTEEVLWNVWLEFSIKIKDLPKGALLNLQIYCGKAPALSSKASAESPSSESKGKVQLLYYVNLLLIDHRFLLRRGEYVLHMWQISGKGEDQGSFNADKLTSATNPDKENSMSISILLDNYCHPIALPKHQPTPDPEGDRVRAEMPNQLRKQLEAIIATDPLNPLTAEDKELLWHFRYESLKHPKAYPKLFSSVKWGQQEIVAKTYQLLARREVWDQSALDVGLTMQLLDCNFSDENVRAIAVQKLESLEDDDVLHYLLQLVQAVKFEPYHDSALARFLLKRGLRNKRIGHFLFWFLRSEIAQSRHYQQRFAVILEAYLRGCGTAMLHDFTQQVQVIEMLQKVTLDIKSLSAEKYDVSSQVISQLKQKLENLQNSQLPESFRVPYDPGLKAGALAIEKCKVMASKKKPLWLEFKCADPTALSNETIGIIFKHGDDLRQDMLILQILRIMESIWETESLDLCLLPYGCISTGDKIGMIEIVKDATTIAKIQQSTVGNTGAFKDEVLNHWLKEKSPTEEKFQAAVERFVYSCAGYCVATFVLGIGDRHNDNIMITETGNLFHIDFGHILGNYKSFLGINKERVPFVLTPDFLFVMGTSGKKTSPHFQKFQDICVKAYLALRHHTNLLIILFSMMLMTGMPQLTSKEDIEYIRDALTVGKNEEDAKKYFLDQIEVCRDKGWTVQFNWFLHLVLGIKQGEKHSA

In the case of `COc1ccc([C@@H](O)c2cc(-c3nncc4cc(N5CCOCC5)ccc34)c(F)cc2Cl)nn1` [Embodiment M3814, reference compound], the IC50 [1] is reported as 14 nM, the IC50 [2] is reported as 1220 nM and the “Tumor volume (mm^3), 3 days after administration” value [3, 4] is reported as 168 ± 10 mm^3. For the same molecule, the “Tumor volume (mm^3), 7 days after administration” value [3, 4] was 106 ± 19 mm^3, the “Tumor volume (mm^3), 10 days after administration” value [3, 4] was 68 ± 16 mm^3 and the “Tumor volume (mm^3), 14 days after administration” value [3, 4] was 25 ± 9 mm^3. For the same molecule, the “Tumor volume (mm^3), 17 days after administration” value [3, 4] was 12 ± 4 mm^3, the “Tumor volume (mm^3), 23 days after administration” value [3, 4] was 1 ± 1 mm^3 and the “Tumor volume (mm^3), 28 days after administration” value ([3]; 50 mg/kg + 2 Gy, day 28, average ± SEM, n = 8) was 1 ± 1 mm^3. For the same molecule, the “Tumor volume (mm^3), 31 days after administration” value ([3]; 50 mg/kg + 2 Gy, day 31, average ± SEM, n = 8) was 0 ± 0 mm^3, the “Tumor volume (mm^3), 35 days after administration” value ([3]; 50 mg/kg + 2 Gy, day 35, average ± SEM, n = 8) was 0 ± 0 mm^3 and the “Tumor volume (mm^3), 42 days after administration” value ([3]; 50 mg/kg + 2 Gy, day 42, average ± SEM, n = 8) was 0 ± 0 mm^3. The “Tumor volume (mm^3), 49 days after administration” value ([3]; 50 mg/kg + 2 Gy, day 49, average ± SEM, n = 8) was 0 ± 0 mm^3, the “Tumor volume (mm^3), 56 days after administration” value ([3]; 50 mg/kg + 2 Gy, day 56, average ± SEM, n = 8) was 0 ± 0 mm^3 and the “Tumor volume (mm^3), 63 days after administration” value ([3]; 50 mg/kg + 2 Gy, day 63, average ± SEM, n = 8) was 0 ± 0 mm^3. The “Tumor volume (mm^3), 70 days after administration” value ([3]; 50 mg/kg + 2 Gy, day 70, average ± SEM, n = 8) was 0 ± 0 mm^3, the “animal death or euthanasia during the study” value ([3]; 50 mg/kg alone, one animal of the group) was “found dead on day 23 after group administration” and the “Tumor volume (mm^3), 3 days after administration” value [3, 5] was 167 ± 20 mm^3. For the same molecule, the “Tumor volume (mm^3), 7 days after administration” value [3, 5] was 322 ± 35 mm^3, the “Tumor volume (mm^3), 10 days after administration” value [3, 5] was 502 ± 48 mm^3 and the “Tumor volume (mm^3), 14 days after administration” value [3, 5] was 752 ± 64 mm^3. The “Tumor volume (mm^3), 17 days after administration” value [3, 5] was 997 ± 109 mm^3, the “Tumor volume (mm^3), 23 days after administration” value [3, 5] was 1831 ± 254 mm^3 and the “RTV (21th day)” value ([3]; QD + radiotherapy 2 Gy) was 0.03 ± 0.02. The “T/C (%) (21th day)” value ([3]; QD + radiotherapy 2 Gy) was 0.24%, the “TGI (%) (21th day)” value ([3]; QD + radiotherapy 2 Gy) was 108.46% and the “Tumor volume (mm^3) (0th day)” value ([3]; QD + radiotherapy 2 Gy, 5-day radiotherapy, 2-day withdrawal, average ± SEM, n = 8) was 106 ± 5 mm^3. The “Tumor volume (mm^3) (21th day)” value ([3]; QD + radiotherapy 2 Gy, average ± SEM, n = 8) was 3 ± 2 mm^3, the “RTV (21th day)” value ([3]; QD, alone) was 12.35 ± 1.10 and the “T/C (%) (21th day)” value ([3]; QD, alone) was 99.60%. For the same molecule, the “TGI (%) (21th day)” value ([3]; QD, alone) was −0.43%, the “Tumor volume (mm^3) (0th day)” value [3, 6] was 106 ± 5 mm^3 and the “Tumor volume (mm^3) (21th day)” value [3, 6] was 1320 ± 174 mm^3.
